From patent publication US9145392B2, “Imidazole amines as modulators of kinase activity” (Merck Patent GmbH, priority 2011, dated 2015)

Molecular target: P70S6K (T412E mutant) (Homo sapiens (Human), UniProt P23443, T412E)
Assay: P70S6K enzyme assay
Assay type: biochemical
Details: read-out: IC50 p70S6K
Experimental: P70S6K inhibitor compounds are diluted and plated in 96 well plates. […] The reaction is incubated for 90 min at 25° C., before the addition of 10 mM EDTA to stop the reaction. The proportion of substrate and product (phosphorylated) peptide is analysed on a Caliper Life Sciences Lab Chip 3000, using a pressure of −1.4 psi, and upstream and downstream voltages of −3000 and −700 respectively. Product peaks are resolved before substrate peaks on the resulting chromatograms.

P70S6K (T412E mutant), sequence (P23443 whole entry T412E): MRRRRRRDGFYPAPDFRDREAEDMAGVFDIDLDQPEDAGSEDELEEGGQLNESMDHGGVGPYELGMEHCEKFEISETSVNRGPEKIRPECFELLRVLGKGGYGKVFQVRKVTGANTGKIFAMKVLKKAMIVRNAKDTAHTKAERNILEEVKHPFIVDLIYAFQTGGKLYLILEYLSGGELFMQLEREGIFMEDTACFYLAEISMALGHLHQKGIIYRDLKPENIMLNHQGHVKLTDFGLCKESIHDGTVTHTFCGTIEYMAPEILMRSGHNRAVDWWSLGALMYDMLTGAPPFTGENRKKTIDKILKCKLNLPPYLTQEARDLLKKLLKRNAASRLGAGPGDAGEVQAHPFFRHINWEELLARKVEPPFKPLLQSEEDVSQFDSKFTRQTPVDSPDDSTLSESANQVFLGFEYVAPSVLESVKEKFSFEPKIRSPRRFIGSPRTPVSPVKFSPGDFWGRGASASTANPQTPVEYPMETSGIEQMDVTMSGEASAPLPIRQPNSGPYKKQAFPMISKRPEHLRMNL

SMILES | IC50 [nM]
FC(F)(F)c1cccc(-c2c[nH]c(C3CCN(c4ccncc4Br)CC3)n2)c1 [Compound 5, 3-bromo-4-(4-{4-[3-(trifluoromethyl)phenyl]-1H-imidazol-2-yl}piperidin-1-yl)pyridine] | 315
Cn1cc(-c2ccc(F)c(C(F)(F)F)c2)nc1C1CCN(c2cc(N)ncn2)CC1 [Compound 12, 6-{4-[4-(4-Fluoro-3-trifluoromethyl-phenyl)-1-methyl-1H-imidazol-2-yl]-piperidin-1-yl}-pyrimidin-4-ylamine] | 87
Cn1cc(-c2ccc(F)c(C(F)(F)F)c2)nc1C1CCN(c2ncnc(N)c2-c2ccccc2C#N)CC1 [Compound 18, 2-(4-Amino-6-{4-[4-(4-fluoro-3-trifluoromethyl-phenyl)-1-methyl-1H-imidazol-2-yl]-piperidin-1-yl}-pyrimidin-5-yl)-benzonitrile] | 250
Cn1cc(-c2ccc(F)c(C(F)(F)F)c2)nc1C1CCN(c2ncnc(N)c2-c2ccccc2)CC1 [Compound 21, 6-{4-[4-(4-Fluoro-3-trifluoromethyl-phenyl)-1-methyl-1H-imidazol-2-yl]-piperidin-1-yl}-5-phenyl-pyrimidin-4-ylamine] | 3.7
Cn1cc(-c2ccc(F)c(C(F)(F)F)c2)nc1C1CCN(c2ncnc(N)c2-c2ccccc2Cl)CC1 [Compound 24, 5-(2-Chlorophenyl)-6-{4-[4-(4-fluoro-3-trifluoromethyl-phenyl)-1-methyl-1H-imidazol-2-yl]-piperidin-1-yl}-pyrimidin-4-ylamine] | 5.3
Cn1cc(-c2ccc(F)c(C(F)(F)F)c2)nc1C1CCN(c2ncnc(N)c2-c2ccc(N3CCOCC3)nc2)CC1 [Compound 25, 6-{4-[4-(4-Fluoro-3-trifluoromethyl-phenyl)-1-methyl-1H-imidazol-2-yl]-piperidin-1-yl}-5-(6-morpholin-4-yl-pyridin-3-yl)-pyrimidin-4-ylamine] | 190
Cn1cc(-c2ccc(F)c(C(F)(F)F)c2)nc1C1CCN(c2ncnc(N)c2-c2ccc(N3CCNCC3)nc2)CC1 [Compound 26, 6-{4-[4-(4-Fluoro-3-trifluoromethyl-phenyl)-1-methyl-1H-imidazol-2-yl]-piperidin-1-yl}-5-(6-piperazin-1-yl-pyridin-3-yl)-pyrimidin-4-ylamine] | 1000
Cn1cc(-c2ccc(F)c(C(F)(F)F)c2)nc1C1CCN(c2ncnc(N)c2-c2cnc(N)nc2)CC1 [Compound 28, 6′-{4-[4-(4-Fluoro-3-trifluoromethyl-phenyl)-1-methyl-1H-imidazol-2-yl]-piperidin-1-yl}-[5,5]bipyrimidinyl-2,4′-diamine] | 4.4
COc1cccc(-c2c(N)ncnc2N2CCC(c3nc(-c4ccc(F)c(C(F)(F)F)c4)cn3C)CC2)c1 [Compound 29, 6-{4-[4-(4-Fluoro-3-trifluoromethyl-phenyl)-1-methyl-1H-imidazol-2-yl]-piperidin-1-yl}-5-(3-methoxyphenyl)-pyrimidin-4-ylamine] | 9.8
Cn1cc(-c2ccc(F)c(C(F)(F)F)c2)nc1C1CCN(c2ncnc(N)c2-c2ccc(F)c(F)c2)CC1 [Compound 30, 5-(3,4-Difluoro-phenyl)-6-{4-[4-(4-fluoro-3-trifluoromethyl-phenyl)-1-methyl-1H-imidazol-2-yl]-piperidin-1-yl}-pyrimidin-4-ylamine] | 6.3
COc1ccc(-c2c(N)ncnc2N2CCC(c3nc(-c4cccc(C(F)(F)F)c4)c[nH]3)CC2)cc1 [Compound 33, 5-(4-Methoxy-phenyl)-6-{4-[4-(3-trifluoromethyl-phenyl)-1H-imidazol-2-yl]-piperidin-1-yl}-pyrimidin-4-ylamine] | 2.7
COc1ccc(-c2cncnc2N2CCC(c3nc(-c4cccc(C(F)(F)F)c4)c[nH]3)CC2)cc1 [Compound 34, 5-(4-Methoxy-phenyl)-4-{4-[4-(3-trifluoromethyl-phenyl)-1H-imidazol-2-yl]-piperidin-1-yl}-pyrimidine] | 12
COc1ccc(-c2cnccc2N2CCC(c3nc(-c4cccc(C(F)(F)F)c4)c[nH]3)CC2)cc1 [Compound 35, 3-(4-methoxyphenyl)-4-(4-{4-[3-(trifluoromethyl)phenyl]-1H-imidazol-2-yl}piperidin-1-yl)pyridine] | 9
Cn1cc(-c2ccc(F)c(C(F)(F)F)c2)nc1C1CCN(c2ncncc2-c2ccc(F)cc2)CC1 [Compound 42, 5-(4-Fluoro-phenyl)-4-{4-[4-(4-fluoro-3-trifluoromethyl-phenyl)-1-methyl-1H-imidazol-2-yl]-piperidin-1-yl}-pyrimidine] | 5.4
COC(=O)/C=C/c1c(N)ncnc1N1CCC(c2nc(-c3ccc(F)c(C(F)(F)F)c3)cn2C)CC1 [Compound 45, (E)-3-(4-Amino-6-{4-[4-(4-fluoro-3-trifluoromethyl-phenyl)-1-methyl-1H-imidazol-2-yl]-piperidin-1-yl}-pyrimidin-5-yl)-acrylic acid methyl ester] | 3.5
COc1cncc(-c2c(N)ncnc2N2CCC(c3nc(-c4ccc(F)c(C(F)(F)F)c4)cn3C)CC2)c1 [Compound 47, 6-{4-[4-(4-Fluoro-3-trifluoromethyl-phenyl)-1-methyl-1H-imidazol-2-yl]-piperidin-1-yl}-5-(5-methoxy-pyridin-3-yl)-pyrimidin-4-ylamine] | 4.3
Cn1cc(-c2ccc(F)c(C(F)(F)F)c2)nc1C1CCN(c2ncnc(N)c2-c2cccc(Cl)c2)CC1 [Compound 51, 5-(3-Chloro-phenyl)-6-{4-[4-(4-fluoro-3-trifluoromethyl-phenyl)-1-methyl-1H-imidazol-2-yl]-piperidin-1-yl}-pyrimidin-4-ylamine] | 22
Cn1cc(-c2ccc(F)c(C(F)(F)F)c2)nc1C1CCN(c2ncnc(N)c2-c2ccc(C#N)c(F)c2)CC1 [Compound 52, 4-(4-Amino-6-{4-[4-(4-fluoro-3-trifluoromethyl-phenyl)-1-methyl-1H-imidazol-2-yl]-piperidin-1-yl}-pyrimidin-5-yl)-2-fluoro-benzonitrile] | 5
CCc1c(N)ncnc1N1CCC(c2nc(-c3ccnc(C(F)(F)F)c3)cn2CCNC)CC1 [Compound 171, 5-ethyl-6-(4-(1-(2-(methylamino)ethyl)-4-(2-(trifluoromethyl)pyridin-4-yl)-1H-imidazol-2-yl)piperidin-1-yl)pyrimidin-4-amine] | 0.6
CCOc1c(N)ncnc1N1CCC(c2nc(-c3ccc(F)c(Cl)c3)cn2CCN2CCCC2)CC1 [Compound 289] | 0.8

The remaining molecules from weak to strong by IC50, led by results:

IC50 [nM] | SMILES
57 | Cn1c(-c2ccc(F)c(C(F)(F)F)c2)cnc1C1CCN(c2ncnc(N)c2Br)CC1 [Compound 2, 5-Bromo-6-{4-[5-(4-fluoro-3-trifluoromethyl-phenyl)-1-methyl-1H-imidazol-2-yl]-piperidin-1-yl}-pyrimidin-4-ylamine]
21 | Cn1cc(-c2ccc(F)c(C(F)(F)F)c2)nc1C1CCN(c2ncnc(N)c2-c2ccc(C(F)(F)F)cc2)CC1 [Compound 16, 6-{4-[4-(4-Fluoro-3-trifluoromethyl-phenyl)-1-methyl-1H-imidazol-2-yl]-piperidin-1-yl}-5-(4-trifluoromethyl-phenyl)-pyrimidin-4-ylamine]
14 | Cn1cc(-c2ccc(F)c(C(F)(F)F)c2)nc1C1CCN(c2ncnc(N)c2/C=C/C(N)=O)CC1 [Compound 46, (E)-3-(4-Amino-6-{4-[4-(4-fluoro-3-trifluoromethyl-phenyl)-1-methyl-1H-imidazol-2-yl]-piperidin-1-yl}-pyrimidin-5-yl)-acrylamide]
7.5 | CN(C)c1ncc(-c2c(N)ncnc2N2CCC(c3nc(-c4ccc(F)c(C(F)(F)F)c4)cn3C)CC2)cn1 [Compound 31, 6′-{4-[4-(4-Fluoro-3-trifluoromethyl-phenyl)-1-methyl-1H-imidazol-2-yl]-piperidin-1-yl}-N2,N2-dimethyl-[5,5]bipyrimidinyl-2,4′-diamine]
4.5 | Cn1cc(-c2ccc(F)c(C(F)(F)F)c2)nc1C1CCN(c2ncnc(N)c2-c2ccc(Cl)nc2)CC1 [Compound 50, 5-(6-Chloro-pyridin-3-yl)-6-{4-[4-(4-fluoro-3-trifluoromethyl-phenyl)-1-methyl-1H-imidazol-2-yl]-piperidin-1-yl}-pyrimidin-4-ylamine]
4.2 | Cn1cc(-c2ccc(F)c(C(F)(F)F)c2)nc1C1CCN(c2ncnc(N)c2-c2ccc(CN)cc2)CC1 [Compound 32, 5-(4-Aminomethyl-phenyl)-6-{4-[4-(4-fluoro-3-trifluoromethyl-phenyl)-1-methyl-1H-imidazol-2-yl]-piperidin-1-yl}-pyrimidin-4-ylamine]
3 | Cn1cc(-c2ccc(F)c(C(F)(F)F)c2)nc1C1CCN(c2ncnc(N)c2-c2ccccc2F)CC1 [Compound 23, 5-(2-Fluorophenyl)-6-{4-[4-(4-fluoro-3-trifluoromethyl-phenyl)-1-methyl-1H-imidazol-2-yl]-piperidin-1-yl}-pyrimidin-4-ylamine]
3 | Cn1cc(-c2ccc(F)c(C(F)(F)F)c2)nc1C1CCN(c2ncnc(N)c2-c2ccc(F)nc2)CC1 [Compound 27, 5-(6-Fluoro-pyridin-3-yl)-6-{4-[4-(4-fluoro-3-trifluoromethyl-phenyl)-1-methyl-1H-imidazol-2-yl]-piperidin-1-yl}-pyrimidin-4-ylamine]
1.6 | Cn1cc(-c2ccc(F)c(C(F)(F)F)c2)nc1C1CCN(c2ncnc(N)c2-c2cccc(F)c2)CC1 [Compound 22, 5-(3-Fluoro-phenyl)-6-{4-[4-(4-fluoro-3-trifluoromethyl-phenyl)-1-methyl-1H-imidazol-2-yl]-piperidin-1-yl}-pyrimidin-4-ylamine]
